We go through 4 compounds from patent US20090156509A1, “Tri-peptide Inhibitors of Serine Elastases” (Accuthera, Inc., priority 2007, published 2009).

pKi: −log10 of the molar value. ≈ marks a conversion by molar mass, not a printed value.

Data set [1] is described as follows: Protein binding in dog plasma by equilibrium dialysis. The settings on record: 10 μM, 6 hours at 37° C. It is filed as in vitro ADME. The method, then: Protein binding of test compounds in dog plasma was assessed by performing equilibrium dialysis with plasma containing test compound (10 μM) against 0.1 M PBS (pH 7.4). Following incubation (6 hours at 37° C.), the parent compound was measured in both plasma and buffer compartments by LC-MS and the percentage of compound bound to plasma proteins determined. […] Generally it is believed that only the unbound drug is available for pharmacological action.

For data set [2], the target named is T1, HNE (human neutrophil elastase) (Homo sapiens, UniProt P08246).
T1 construct: Enzymes PR3 and HNE (HLE) were purchased from Athens Research and Technology (Athens, Ga.) or Elastin Products (Owensville, Mich.); purchased Athens Research and Technology (Athens, Ga.) or Elastin Products (Owensville, Mich.)
T1 sequence (P08246 30-267): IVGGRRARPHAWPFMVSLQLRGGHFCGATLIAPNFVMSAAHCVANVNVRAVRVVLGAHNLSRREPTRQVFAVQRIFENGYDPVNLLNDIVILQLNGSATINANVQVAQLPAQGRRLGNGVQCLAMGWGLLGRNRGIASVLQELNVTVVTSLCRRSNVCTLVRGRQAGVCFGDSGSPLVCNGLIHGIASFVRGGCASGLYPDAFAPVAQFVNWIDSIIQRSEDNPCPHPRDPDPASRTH
Description: HNE enzyme inhibition, kinetic Ki determination. The settings on record: for pKi: substrate MeO-Suc-Ala-Ala-Pro-Val-pNA, pH 7.6, read-out: Ki (NE). It is filed as biochemical. The method, then: (§1) The assays for measurement of PR3 and HNE enzyme and inhibitory activity were performed generally as described by Coeschott et al., Proc. Nat. Acad. Sci. USA, 96: 6261-6266, (1999). Kinetic characterization was performed generally by the techniques of Wieczorek et al., Archives of Biochem. and BioPhys., 367: 193-201 (1999). Enzymes PR3 and HNE (HLE) were purchased from Athens Research and Technology (Athens, Ga.) or Elastin Products (Owensville, Mich.).
(§2) The substrate used for HNE was MeO-Suc-Ala-Ala-Pro-Val-pNA, in 0.05 M sodium phosphate/0.1 M NaCl, pH 7.6, containing 0.001% Triton X-100 and 5% DMSO. The substrate used for PR3 was Boc-Ala-Pro-Nva-4-chloro-SBzl in 0.05 M potassium phosphate/0.1 M KCl, pH 7.6, containing 0.001% Triton X-100, and 10% DMSO. The cleavage of the thiobenzyl ester was detected with 250 μM […] (5′,5′-dithiobis-2-nitrobenzoic acid).
The concentration of active site of HNE was determined by titration with N-benzyloxycarbonyl-Ala-Ala-Pro-azaAla p-nitrophenyl ester or an alternative method. For the alternative method, the concentration of the active center of a HNE solution was first titrated with the above p-nitrophenyl ester, this HNE solution was then used to measure the active center concentration of an eglin c solution. Aliquots of the eglin c solution were stored at −70° C. and employed as a second standard to assay the activity of any newly prepared HNE solutions. No change in the activity of eglin c could be detected over a 3 year time interval as long as the solution was stored at −70° C. An important factor which influences the HNE assay is the method of dissolution of lyophilized enyme: if HNE is obtained in the lyophilized state, the protease solution should be dissolved, aliquoted, and stored at −20° C. for at least 48 hours prior to assay, so that the dried protein can be completely hydrated. Freshly dissolved enzyme which has not been stored for 48 hours may have proteolytic activity which is 10%-20% less that of stored enzyme.
Consequently, it is not always easy to achieve conditions in which the initial concentration of free inhibitor, [I]o, is much larger than the initial concentration of free enzyme, [E]o, i.e. the condition of [I]o≧10 [E]o is not easily fulfilled. […]
can only be employed when the condition of [I]o≧10 [E]o is fulfilled. In those cases in which the condition of [I]o≧10 [E]o is not met, the experimental data is analyzed using the Henderson equations according to the classic procedure (Henderson, P. J. F. Biochem. J. 127: 321, 1972) or with equations derived for slow-binding inhibition (Ying, Q-L. et al, Biochemistry 33: 5445, 1994). […]

The nature of data set [3]: Plasma stability in dog plasma. The settings on record: 37° C., 2 hours, read-out: Plasma Stability (t1/2). It counts as in vitro ADME. The method, then:
Plasma stability of test compounds was accessed by incubating with dog plasma (37° C. at 1 μM) for 2 hours. Aliquots were taken at pre-defined times and the disappearance of parent compound was monitored by LC-MS.

Data set [4] concerns the target T2, PR3 (human neutrophil proteinase 3) (Homo sapiens, UniProt P24158).
T2 construct: Enzymes PR3 and HNE (HLE) were purchased from Athens Research and Technology (Athens, Ga.) or Elastin Products (Owensville, Mich.); purchased Athens Research and Technology (Athens, Ga.) or Elastin Products (Owensville, Mich.)
T2 sequence (P24158 28-248): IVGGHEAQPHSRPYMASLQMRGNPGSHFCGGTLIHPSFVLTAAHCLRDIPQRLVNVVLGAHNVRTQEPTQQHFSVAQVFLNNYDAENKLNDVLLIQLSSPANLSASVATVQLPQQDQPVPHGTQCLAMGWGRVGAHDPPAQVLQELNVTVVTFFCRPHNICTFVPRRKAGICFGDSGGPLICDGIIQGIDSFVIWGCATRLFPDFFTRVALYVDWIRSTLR
Description: PR3 enzyme inhibition, Ki determination. It is filed as biochemical. The settings on record: substrate Boc-Ala-Pro-Nva-4-chloro-SBzl, pH 7.6. The method, then: as §1, §2

Data set [5] is described as follows: Solubility in 0.1 M PBS by LC-MS. It is filed as physicochemical. The settings on record: aqueous buffer, kinetic from dmso stock; 0.1 M PBS pH 7.4, 2% DMSO, 2 hours at 37° C. The method, then:
Solubility of test compounds was measured by adding small volumes of DMSO stock solutions (final concentration 2% DMSO) to 0.1 M PBS (pH 7.4) and incubating for 2 hours at 37° C. Subsequently, the samples were filtered and the concentration of test compounds was determined by LC-MS.

Turning to `CC(C)[C@H](NC(=O)[C@@H]1CCCN1C(=O)[C@@H](NC(=O)CCCCCNC(=O)c1ccccn1)C(C)C)C(=O)c1nnc(-c2ccccc2)o1` [AI-158], in data set [1], the “Plasma Protein Binding (% free)” value is listed as 8.0 % free and the “Protein binding in dog plasma (% bound)” value was 92 % bound. Moreover, the negative logarithm of the Ki (pKi) (as a rule, the negative decadic logarithm of the Ki, by convention in mol/L) in data set [2] was 9.66. The half-life at 1 μM in data set [3] is above 100 min. The compound further gave a pKi in data set [4] of 8.08. Moreover, the solubility (in general, the concentration that dissolves in the medium under given conditions) at 2 h in data set [5] stood at 69 µM (≈ 45.5 µg/mL).
For `CC(C)[C@H](NC(=O)CCCCCNC(=O)c1ccccn1)C(=O)N1CCC[C@H]1C(=O)N[C@H](C(=O)C(F)(F)F)C(C)C` [AI-167], in data set [1], the “Plasma Protein Binding (% free)” value came to 19.0 % free and the “Protein binding in dog plasma (% bound)” value is 81 % bound. For the same compound, the half-life at 1 μM in data set [3] was above 100 min. The compound further gave a solubility at 2 h in data set [5] of 164 µM (≈ 95.7 µg/mL).
With `CC(C)[C@H](NC(=O)[C@@H]1CCCN1C(=O)[C@@H](NC(=O)CCCCCNC(=O)c1ccccn1)C(C)C)C(=O)c1nnc(C(C)(C)C)o1` [AI-168], the “Plasma Protein Binding (% free)” value in data set [1] is listed as 17.0 % free. In addition, in data set [1], the “Protein binding in dog plasma (% bound)” value amounted to 83 % bound. The negative logarithm of the Ki (pKi) in data set [2] is 9.70; in data set [4] it was 8.41. Also, the half-life at 1 μM in data set [3] was above 100 min. The same compound gave a solubility at 2 h in data set [5] of 179 µM (≈ 115 µg/mL).
For the compound `Cc1cccc(Cc2nnc(C(=O)[C@@H](NC(=O)[C@@H]3CCCN3C(=O)[C@@H](NC(=O)OCc3ccccc3)C(C)C)C(C)C)o2)c1` [CE-2072, reference compound], in data set [1], the “Plasma Protein Binding (% free)” value is 1.0 % free. The pKi in data set [2] was 9.62; in data set [4], 7.62. In data set [2] (tight binding inhibitor of HLE), the “Ki for HLE (in words)” value is “subnanomolar range”. The half-life at 1 μM in data set [3] was above 100 min. In data set [5], this compound gave a solubility at 2 h below 10 µM.
